Values of other authors as cited in article PMC9227077, “Prediction Models for Brain Distribution of Drugs Based on Biomimetic Chromatographic Data” (Molecules, 2022).
Where two headings read alike, the source gives them in different places.

What was measured:
[1] = design: method as in ref 23, 24, 27, 29, 45 (a number printed in a supplementary file, which may have a reference list of its own: not looked up in the article's list); conditions: 100% aqueous mobile phase, previously obtained in authors' laboratory, cited from earlier work
[2] = most values in rats, average if more than one value; cited from earlier work
human serum albumin = test system: human serum albumin; design: method as in ref 45 (a number printed in a supplementary file, which may have a reference list of its own: not looked up in the article's list); conditions: cited from earlier work
[3] = experimental, cited from earlier work; for logP: octanol-water partition coefficient
α1 acid glycoprotein = test system: α1 acid glycoprotein; design: method as in ref 23, 24, 27, 29, 45 (a number printed in a supplementary file, which may have a reference list of its own: not looked up in the article's list); conditions: pH=7.4, 100% aqueous mobile phase; previously obtained in authors' laboratory; cited from earlier work
[4] = cited from earlier work
[5] = pH=7.4, isocratic, 10% acetonitrile, available for 37 compounds, remaining calculated by equation
[6] = literature Kp,brain converted to logBB
[7] = total brain/total plasma, preferably rat studies

SMILES: O=C(CCCN1CCC(O)(c2ccc(Cl)cc2)CC1)c1ccc(F)cc1 [Haloperidol]
- logkw IAM ([1]; pH=5.0, PBS): 1.86
- logkw IAM ([1]; pH=7.4, PBS): 2.65
- fu,brain [2]: 0.008
- logk10,HSA (human serum albumin; [5]): 0.77

SMILES: CN1CC[C@]23c4c5ccc(O)c4O[C@H]2[C@@H](O)C=C[C@H]3[C@H]1C5 [Morphine]
- logkw IAM ([1]; pH=5.0, PBS): 0.10
- logkw IAM ([1]; pH=7.4, PBS): 0.63

SMILES: CN(C)CCCN1c2ccccc2CCc2ccc(Cl)cc21 [Clomipramine]
- logkw IAM ([1]; pH=5.0, PBS): 2.49
- logkw IAM ([1]; pH=7.4, PBS): 3.29
- logP [3]: 5.46
- logD ([3]; pH=5.0, octanol-water): 2.19
- logD ([3]; pH=7.4, octanol-water): 3.30
- logkwAGP (α1 acid glycoprotein): 2.70
- logBB exper. [4, 6]: 1.34
- Kp,brain [4, 7]: 21.88
- fu,brain [2]: 0.004

SMILES: NC(=O)CN1CCCC1=O [Piracetam]
- logD ([3]; pH=5.0, octanol-water): -1.54
- logD ([3]; pH=7.4, octanol-water): -1.54
- Kp,brain [4, 7]: 1.00
- logk10,HSA (human serum albumin; [5]): -1.32

SMILES: CC(=O)Oc1ccccc1C(=O)O [Acetylsalicylic acid]
- logkw IAM ([1]; pH=5.0, PBS): -0.48
- logkw IAM ([1]; pH=7.4, PBS): -0.81
- logD ([3]; pH=5.0, octanol-water): -0.29
- logD ([3]; pH=7.4, octanol-water): -1.20
- logBB exper. [4, 6]: -0.5
- Kp,brain [4, 7]: 0.32
- logk10,HSA (human serum albumin; [5]): 0.38

SMILES: CNCCC=C1c2ccccc2CCc2ccccc21 [Nortriptyline]
- logkw IAM ([1]; pH=5.0, PBS): 2.12
- logkw IAM ([1]; pH=7.4, PBS): 2.83
- logP [3]: 4.04
- logD ([3]; pH=5.0, octanol-water): 1.16
- logD ([3]; pH=7.4, octanol-water): 1.70
- logkwAGP (α1 acid glycoprotein): 2.30
- fu,brain [2]: 0.006
- logk10,HSA (human serum albumin; [5]): 0.82

SMILES: O=c1n(CCCN2CCN(c3cccc(Cl)c3)CC2)nc2ccccn12 [Trazodone]
- logD ([3]; pH=5.0, octanol-water): 2.89
- logD ([3]; pH=7.4, octanol-water): 3.70
- logkwAGP (α1 acid glycoprotein): 2.36
- fu,brain [2]: 0.071

SMILES: CN(C)CCCN1c2ccccc2Sc2ccc(Cl)cc21 [Chlorpromazine]
- logkwAGP (α1 acid glycoprotein): 2.30
- fu,brain [2]: 0.003
- logk10,HSA (human serum albumin; [5]): 1.34

SMILES: CN(C)CCCN1c2ccccc2CCc2ccccc21 [Imipramine]
- logkw IAM ([1]; pH=5.0, PBS): 2.05
- logkw IAM ([1]; pH=7.4, PBS): 2.73
- logBB exper. [4, 6]: 0.83
- Kp,brain [4, 7]: 6.76
- fu,brain [2]: 0.035

SMILES: CCOc1nc2cccc(C(=O)O)c2n1Cc1ccc(-c2ccccc2-c2nnn[nH]2)cc1 [Candesartan]
- logkw IAM ([1]; pH=5.0, PBS): 1.57
- logkw IAM ([1]; pH=7.4, PBS): 1.00
- logP [3]: 3.36
- logD ([3]; pH=5.0, octanol-water): 1.00
- logD ([3]; pH=7.4, octanol-water): -1.35
- logkwAGP (α1 acid glycoprotein): 0.09
- logBB exper. [4, 6]: -1.4
- Kp,brain [4, 7]: 0.04
- logk10,HSA (human serum albumin; [5]): 0.42

SMILES: Nc1nc2c(ncn2COCCO)c(=O)[nH]1 [Acyclovir]
- logkw IAM ([1]; pH=5.0, PBS): -1.37
- logkw IAM ([1]; pH=7.4, PBS): -1.15
- logP [3]: -1.56
- logD ([3]; pH=5.0, octanol-water): -1.56
- logD ([3]; pH=7.4, octanol-water): -1.56

SMILES: CC(C)NCC(O)COc1cccc2[nH]ccc12 (stereo not shown) [Pindolol]
- logD ([3]; pH=5.0, octanol-water): -1.15
- logD ([3]; pH=7.4, octanol-water): -0.21
- logBB exper. [4, 6]: -0.14
- Kp,brain [4, 7]: 0.72
- fu,brain [2]: 0.400
- logk10,HSA (human serum albumin; [5]): -0.03

SMILES: CN1C(=O)CN=C(c2ccccc2)c2cc(Cl)ccc21 [Diazepam]
- logkw IAM ([1]; pH=5.0, PBS): 2.12
- logkw IAM ([1]; pH=7.4, PBS): 2.12

SMILES: CN1[C@@H]2CC[C@H]1C[C@@H](OC(=O)C(CO)c1ccccc1)C2 (stereo partly shown) [Atropine]
- logkw IAM ([1]; pH=7.4, PBS): 1.05

SMILES: CC(C)NCC(O)COc1ccc(CC(N)=O)cc1 (stereo not shown) [Atenolol]
- logkw IAM ([1]; pH=5.0, PBS): -0.20
- logkw IAM ([1]; pH=7.4, PBS): 0.51

SMILES: CN(C)CCC=C1c2ccccc2COc2ccccc21 [Doxepin]
- logkw IAM ([1]; pH=5.0, PBS): 1.98
- logkw IAM ([1]; pH=7.4, PBS): 2.50
- logP [3]: 3.96
- logD ([3]; pH=5.0, octanol-water): 0.86
- logD ([3]; pH=7.4, octanol-water): 2.22
- logkwAGP (α1 acid glycoprotein): 2.30
- logk10,HSA (human serum albumin; [5]): 0.56

SMILES: OCCOCCN1CCN(C(c2ccccc2)c2ccc(Cl)cc2)CC1 (stereo not shown) [Hydroxyzine]
- logkw IAM ([1]; pH=5.0, PBS): 2.23
- logkw IAM ([1]; pH=7.4, PBS): 3.01
- logD ([3]; pH=5.0, octanol-water): 0.73
- logD ([3]; pH=7.4, octanol-water): 3.01
- logBB exper. [4, 6]: 0.39
- Kp,brain [4, 7]: 2.45
- fu,brain [2]: 0.013
- logk10,HSA (human serum albumin; [5]): 0.60

SMILES: CC(CN1c2ccccc2Sc2ccccc21)N(C)C (stereo not shown) [Promethazine]
- logkw IAM ([1]; pH=5.0, PBS): 2.18
- logkw IAM ([1]; pH=7.4, PBS): 2.78
- logD ([3]; pH=5.0, octanol-water): 1.59
- logD ([3]; pH=7.4, octanol-water): 2.79
- logkwAGP (α1 acid glycoprotein): 2.50
- logBB exper. [4, 6]: 0.824
- Kp,brain [4, 7]: 6.67
- logk10,HSA (human serum albumin; [5]): 1.05

SMILES: CCC1(c2ccccc2)C(=O)NC(=O)NC1=O [Phenobarbital]
- logkw IAM ([1]; pH=5.0, PBS): 0.71
- logkw IAM ([1]; pH=7.4, PBS): 0.28
- logD ([3]; pH=5.0, octanol-water): 1.47
- logD ([3]; pH=7.4, octanol-water): 1.14
- logkwAGP (α1 acid glycoprotein): 1.10
- Kp,brain ([4]; rat, in vivo): 0.72
- logBB exper. ([4]; rat, in vivo): -0.14
- logk10,HSA (human serum albumin; [5]): -0.22

SMILES: Cn1c(=O)c2[nH]cnc2n(C)c1=O [Theophylline]
- logkw IAM ([1]; pH=5.0, PBS): -0.26
- logkw IAM ([1]; pH=7.4, PBS): -0.08

SMILES: CC(=O)[C@H]1CC[C@H]2[C@@H]3CCC4=CC(=O)CC[C@]4(C)[C@H]3CC[C@]12C [Progesterone]
- logkw IAM ([1]; pH=7.4, PBS): 3.06
- logD ([3]; pH=5.0, octanol-water): 3.89
- logD ([3]; pH=7.4, octanol-water): 3.48
- fu,brain [2]: 0.046
- logk10,HSA (human serum albumin; [5]): 0.84

SMILES: CN1C(=O)CN=C(c2ccccc2F)c2cc([N+](=O)[O-])ccc21 [Flunitrazepam]
- logkw IAM ([1]; pH=7.4, PBS): 1.79
- logkwAGP (α1 acid glycoprotein): 1.44
- logk10,HSA (human serum albumin): 0.26

SMILES: Cc1c(N(C)C)c(=O)n(-c2ccccc2)n1C [Aminopyrine]
- logBB exper. [4, 6]: 0.00
- Kp,brain [4, 7]: 1.00
- logk10,HSA (human serum albumin; [5]): -0.30

SMILES: O=C1Nc2ccc(Cl)cc2C(c2ccccc2Cl)=NC1O (stereo not shown) [Lorazepam]
- logkw IAM ([1]; pH=5.0, PBS): 2.01
- logkw IAM ([1]; pH=7.4, PBS): 2.03
- logkwAGP (α1 acid glycoprotein): 1.33
- logBB exper. [4, 6]: 0.47
- Kp,brain [4, 7]: 2.95
- logk10,HSA (human serum albumin; [5]): 0.67

SMILES: COc1ccc2cc([C@H](C)C(=O)O)ccc2c1 [Naproxen]
- logkw IAM ([1]; pH=5.0, PBS): 1.71
- logkw IAM ([1]; pH=7.4, PBS): 0.98

SMILES: CNCCCC12CCC(c3ccccc31)c1ccccc12 [Maprotiline]
- logkw IAM ([1]; pH=5.0, PBS): 2.25
- logkw IAM ([1]; pH=7.4, PBS): 2.81
- logP [3]: 4.14
- logD ([3]; pH=5.0, octanol-water): 1.19
- logD ([3]; pH=7.4, octanol-water): 1.44
- logBB exper. [4, 6]: 1.76
- Kp,brain [4, 7]: 57.54
- fu,brain [2]: 0.006
- logk10,HSA (human serum albumin; [5]): 0.80

SMILES: CNCCC(Oc1ccc(C(F)(F)F)cc1)c1ccccc1 (stereo not shown) [Fluoxetine]
- logkw IAM ([1]; pH=5.0, PBS): 2.46
- logkw IAM ([1]; pH=7.4, PBS): 2.98
- logP [3]: 4.26
- logkwAGP (α1 acid glycoprotein): 2.10
- logBB exper. [4, 6]: 0.72
- Kp,brain [4, 7]: 5.25

SMILES: CC(C)=CCN1CCC2(C)c3cc(O)ccc3CC1C2C (stereo not shown) [Pentazocine]
- logkw IAM ([1]; pH=5.0, PBS): 1.70
- logkw IAM ([1]; pH=7.4, PBS): 2.06
- logP [3]: 4.64
- logD ([3]; pH=5.0, octanol-water): 1.24
- logD ([3]; pH=7.4, octanol-water): 4.02
- logBB exper. [4, 6]: 0.545
- Kp,brain [4, 7]: 3.51
- logk10,HSA (human serum albumin; [5]): 1.09

SMILES: CN1C(=O)C(O)N=C(c2ccccc2)c2cc(Cl)ccc21 (stereo not shown) [Temazapam]
- logkw IAM ([1]; pH=5.0, PBS): 1.76
- logkw IAM ([1]; pH=7.4, PBS): 1.76
- logk10,HSA (human serum albumin; [5]): 0.28

SMILES: CCCC(C)C1(CC)C(=O)NC(=O)NC1=O (stereo not shown) [Pentobarbital]
- logkw IAM ([1]; pH=5.0, PBS): 1.40
- logkw IAM ([1]; pH=7.4, PBS): 1.29
- logP [3]: 2.07
- logD ([3]; pH=5.0, octanol-water): 1.88
- logD ([3]; pH=7.4, octanol-water): 1.95
- logkwAGP (α1 acid glycoprotein): 1.35
- Kp,brain ([4]; rat, in vivo): 1.32
- logBB exper. ([4]; rat, in vivo): 0.12
- logk10,HSA (human serum albumin; [5]): -0.04

SMILES: CN1[C@@H]2C[C@@H](OC(=O)[C@H](CO)c3ccccc3)C[C@H]1[C@@H]1O[C@@H]12 [Scopolamine]
- logkw IAM ([1]; pH=5.0, PBS): 0.73
- logkw IAM ([1]; pH=7.4, PBS): 1.15
